Laboratory results reported in US9532990B2 (Zhejiang DTRM Biopharma Co. Ltd., priority 2014, dated 2017).
Like-named read-outs stand apart in the source and are kept apart here.

Biological target: BTK wild type (Homo sapiens (Human), UniProt Q06187)
Assay: Inhibition assay of BTK kinase activity (HTRF)
Type: biochemical
Procedure: Inhibition Assay of BTK Kinase Activity:
The enzyme reaction mixture of BTK wild type standard HTRF assay contained 1 nM BTK wild type, 1 μM biotin-TK1 peptide, and 30 μM ATP in a buffer. The enzyme reaction were carried out at room temperature for 60 minutes. […] The plates were incubated at room temperature for 60 minutes and then read in the Envision plate reader.

[1] = all compounds with IC50 of less 10 nM, read-out: IC50 (BTK)

Chain of BTK wild type (Q06187 whole entry): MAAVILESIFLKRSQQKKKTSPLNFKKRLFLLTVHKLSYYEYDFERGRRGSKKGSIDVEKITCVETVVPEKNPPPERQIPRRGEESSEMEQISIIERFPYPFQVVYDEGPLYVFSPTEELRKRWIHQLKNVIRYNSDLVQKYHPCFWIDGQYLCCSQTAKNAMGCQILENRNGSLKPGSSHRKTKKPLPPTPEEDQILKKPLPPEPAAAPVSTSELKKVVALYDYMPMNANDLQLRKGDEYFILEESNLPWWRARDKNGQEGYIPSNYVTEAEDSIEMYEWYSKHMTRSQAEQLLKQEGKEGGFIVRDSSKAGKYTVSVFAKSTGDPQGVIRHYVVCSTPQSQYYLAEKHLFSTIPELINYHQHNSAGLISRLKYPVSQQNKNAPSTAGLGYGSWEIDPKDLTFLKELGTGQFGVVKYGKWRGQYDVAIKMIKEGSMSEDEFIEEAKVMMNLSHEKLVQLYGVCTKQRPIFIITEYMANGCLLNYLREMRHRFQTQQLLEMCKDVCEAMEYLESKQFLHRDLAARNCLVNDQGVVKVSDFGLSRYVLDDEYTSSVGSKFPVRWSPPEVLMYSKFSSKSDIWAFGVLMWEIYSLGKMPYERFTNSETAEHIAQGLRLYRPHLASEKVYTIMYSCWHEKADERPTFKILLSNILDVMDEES

SMILES	IC50 [µM]	IC50 (read-out: BTK IC50) [µM]	IC50 [1] [µM]
C=CC(=O)NC(C)(C)Cn1nc(-c2ccc(Oc3c(F)c(F)cc(F)c3F)cc2F)c2c(N)ncnc21 [Compound 87, N-(1-(4-amino-3-(2-fluoro-4-(2,3,5,6-tetrafluorophenoxy)phenyl)-1H-pyrazolo[3,4-d]pyrimidin-1-yl)-2-methylpropan-2-yl)acrylamide]	< 0.01	0.008	–
C=CC(=O)N1CC[C@@H](n2nc(-c3ccc(Oc4ccnc(C(=O)NC)c4)cc3F)c3c(N)ncnc32)C1 [Compound 88, 4-(4-(1-((R)-1-acryloylpyrrolidin-3-yl)-4-amino-1H-pyrazolo[3,4-d]pyrimidin-3-yl)-3-fluorophenoxy)-N-methylpicolinamide]	–	0.011	–
C=CC(=O)N1CC[C@@H](n2nc(-c3ccc(Oc4ccnc5cc(OC)c(OC)cc45)cc3F)c3c(N)ncnc32)C1 [Compound 89, 1-((R)-3-(4-amino-3-(4-(6,7-dimethoxyquinolin-4-yloxy)-2-fluorophenyl)-1H-pyrazolo[3,4-d]pyrimidin-1-yl)pyrrolidin-1-yl)prop-2-en-1-one]	–	0.025	–
C=CC(=O)N1CC[C@@H](n2nc(-c3ccc(Oc4ccnc5ccccc45)cc3F)c3c(N)ncnc32)C1 [Compound 90, 1-((R)-3-(4-amino-3-(2-fluoro-4-(quinolin-4-yloxy)phenyl)-1H-pyrazolo[3,4-d]pyrimidin-1-yl)pyrrolidin-1-yl)prop-2-en-1-one]	–	0.015	–
CN(C)C/C=C/C(=O)N1CC[C@@H](n2nc(-c3ccc(Oc4c(F)c(F)cc(F)c4F)cc3F)c3c(N)ncnc32)C1 [Compound 91, (E)-1-((R)-3-(4-amino-3-(2-fluoro-4-(2,3,5,6-tetrafluorophenoxy)phenyl)-1H-pyrazolo[3,4-d]pyrimidin-1-yl)pyrrolidin-1-yl)-4-(dimethylamino)but-2-en-1-one]	–	0.003	< 0.01
Nc1ncnc2c1c(-c1ccc(Oc3c(F)c(F)cc(F)c3F)cc1F)nn2[C@@H]1CCN(C(=O)/C=C/c2ccccc2)C1 [Compound 92, (E)-1-((R)-3-(4-amino-3-(2-fluoro-4-(2,3,5,6-tetrafluorophenoxy)phenyl)-1H-pyrazolo[3,4-d]pyrimidin-1-yl)pyrrolidin-1-yl)-3-phenylprop-2-en-1-one]	–	2.4	–
Nc1ncnc2c1c(-c1ccc(Oc3c(F)c(F)cc(F)c3F)cc1F)nn2[C@@H]1CCN(C(=O)/C=C/c2ccccc2F)C1 [Compound 93, (E)-1-((R)-3-(4-amino-3-(2-fluoro-4-(2,3,5,6-tetrafluorophenoxy)phenyl)-1H-pyrazolo[3,4-d]pyrimidin-1-yl)pyrrolidin-1-yl)-3-(2-fluorophenyl)prop-2-en-1-one]	–	2.65	–
C=CC(=O)N1CC[C@@H](n2nc(-c3ccc(Oc4cccc(F)c4)cc3F)c3c(N)ncnc32)C1 [Compound 94, 1-((R)-3-(4-amino-3-(2-fluoro-4-(3-fluorophenoxy)phenyl)-1H-pyrazolo[3,4-d]pyrimidin-1-yl)pyrrolidin-1-yl)prop-2-en-1-one]	–	0.001	< 0.01
C=CC(=O)N1CC[C@@H](n2nc(-c3ccc(Oc4ncccn4)cc3F)c3c(N)ncnc32)C1 [Compound 95, 1-((R)-3-(4-amino-3-(2-fluoro-4-(pyrimidin-2-yloxy)phenyl)-1H-pyrazolo[3,4-d]pyrimidin-1-yl)pyrrolidin-1-yl)prop-2-en-1-one]	–	0.005	< 0.01
C=CC(=O)N1CC[C@@H](n2nc(-c3ccc(Oc4nccc(Cl)n4)cc3F)c3c(N)ncnc32)C1 [Compound 96, 1-((R)-3-(4-amino-3-(4-(4-chloropyrimidin-2-yloxy)-2-fluorophenyl)-1H-pyrazolo[3,4-d]pyrimidin-1-yl)pyrrolidin-1-yl)prop-2-en-1-one]	–	0.013	–
C=CC(=O)N1CC[C@@H](n2nc(-c3ccc(Oc4nccc(C(F)(F)F)n4)cc3F)c3c(N)ncnc32)C1 [Compound 97, 1-((R)-3-(4-amino-3-(2-fluoro-4-(4-(trifluoromethyl)pyrimidin-2-yloxy)phenyl)-1H-pyrazolo[3,4-d]pyrimidin-1-yl)pyrrolidin-1-yl)prop-2-en-1-one]	–	0.006	–
N#C/C=C\C(=O)N1CC[C@@H](n2nc(-c3ccc(Oc4c(F)c(F)cc(F)c4F)cc3F)c3c(N)ncnc32)C1 [Compound 98, (Z)-4-((R)-3-(4-amino-3-(2-fluoro-4-(2,3,5,6-tetrafluorophenoxy)phenyl)-1H-pyrazolo[3,4-d]pyrimidin-1-yl)pyrrolidin-1-yl)-4-oxobut-2-enenitrile]	–	0.002	< 0.01
Nc1ncnc2c1c(-c1ccc(Oc3c(F)c(F)cc(F)c3F)cc1F)nn2[C@@H]1CCCN(C(=O)CCl)C1 [Compound 99, 1-((R)-3-(4-amino-3-(2-fluoro-4-(2,3,5,6-tetrafluorophenoxy)phenyl)-1H-pyrazolo[3,4-d]pyrimidin-1-yl)piperidin-1-yl)-2-chloroethanone]	–	0.002	< 0.01
Nc1ncnc2c1c(-c1ccc(Oc3c(F)c(F)cc(F)c3F)cc1F)nn2[C@H]1CCCN(C(=O)CCl)C1 [Compound 100, 1-((S)-3-(4-amino-3-(2-fluoro-4-(2,3,5,6-tetrafluorophenoxy)phenyl)-1H-pyrazolo[3,4-d]pyrimidin-1-yl)piperidin-1-yl)-2-chloroethanone]	–	0.002	< 0.01
Nc1ncnc2c1c(-c1ccc(Oc3c(F)c(F)cc(F)c3F)cc1F)nn2[C@@H]1CCCN(C(=O)C(Cl)Cl)C1 [Compound 101, 1-((R)-3-(4-amino-3-(2-fluoro-4-(2,3,5,6-tetrafluorophenoxy)phenyl)-1H-pyrazolo[3,4-d]pyrimidin-1-yl)piperidin-1-yl)-2,2-dichloroethanone]	–	0.525	–
Nc1ncnc2c1c(-c1ccc(Oc3c(F)c(F)cc(F)c3F)cc1F)nn2[C@H]1CCCN(C(=O)C(Cl)Cl)C1 [Compound 102, 1-((S)-3-(4-amino-3-(2-fluoro-4-(2,3,5,6-tetrafluorophenoxy)phenyl)-1H-pyrazolo[3,4-d]pyrimidin-1-yl)piperidin-1-yl)-2,2-dichloroethanone]	–	1.6	–
Nc1ncnc2c1c(-c1ccc(Oc3c(F)c(F)cc(F)c3F)cc1F)nn2[C@@H]1CCN(C(=O)C(Cl)Cl)C1 [Compound 103, 1-((R)-3-(4-amino-3-(2-fluoro-4-(2,3,5,6-tetrafluorophenoxy)phenyl)-1H-pyrazolo[3,4-d]pyrimidin-1-yl)pyrrolidin-1-yl)-2,2-dichloroethanone]	–	0.546	–
C/C=C/C(=O)N1CC[C@@H](n2nc(-c3ccc(Oc4c(F)c(F)cc(F)c4F)cc3F)c3c(N)ncnc32)C1 [Compound 104, (E)-1-((R)-3-(4-amino-3-(2-fluoro-4-(2,3,5,6-tetrafluorophenoxy)phenyl)-1H-pyrazolo[3,4-d]pyrimidin-1-yl)pyrrolidin-1-yl)but-2-en-1-one]	–	0.107	–
C=C(C)C(=O)N1CC[C@@H](n2nc(-c3ccc(Oc4c(F)c(F)cc(F)c4F)cc3F)c3c(N)ncnc32)C1 [Compound 105, 1-((R)-3-(4-amino-3-(2-fluoro-4-(2,3,5,6-tetrafluorophenoxy)phenyl)-1H-pyrazolo[3,4-d]pyrimidin-1-yl)pyrrolidin-1-yl)-2-methylprop-2-en-1-one]	–	0.589	–
C=C(F)C(=O)N1CC[C@@H](n2nc(-c3ccc(Oc4c(F)c(F)cc(F)c4F)cc3F)c3c(N)ncnc32)C1 [Compound 106, 1-((R)-3-(4-amino-3-(2-fluoro-4-(2,3,5,6-tetrafluorophenoxy)phenyl)-1H-pyrazolo[3,4-d]pyrimidin-1-yl)pyrrolidin-1-yl)-2-fluoroprop-2-en-1-one]	–	0.003	< 0.01
